Experimental data from patent publication US10702489B2, “Treatment of nervous system disorders using combinations of RXR agonists and thyroid hormones” (IO Therapeutics, Inc., priority 2015, dated 2020).
“Also recorded” adds a separate entry of the source.

How the values were obtained:
RXRα = molecular target: T1, RXRα (Homo sapiens, UniProt P19793)
T1 sequence (P19793 1-462): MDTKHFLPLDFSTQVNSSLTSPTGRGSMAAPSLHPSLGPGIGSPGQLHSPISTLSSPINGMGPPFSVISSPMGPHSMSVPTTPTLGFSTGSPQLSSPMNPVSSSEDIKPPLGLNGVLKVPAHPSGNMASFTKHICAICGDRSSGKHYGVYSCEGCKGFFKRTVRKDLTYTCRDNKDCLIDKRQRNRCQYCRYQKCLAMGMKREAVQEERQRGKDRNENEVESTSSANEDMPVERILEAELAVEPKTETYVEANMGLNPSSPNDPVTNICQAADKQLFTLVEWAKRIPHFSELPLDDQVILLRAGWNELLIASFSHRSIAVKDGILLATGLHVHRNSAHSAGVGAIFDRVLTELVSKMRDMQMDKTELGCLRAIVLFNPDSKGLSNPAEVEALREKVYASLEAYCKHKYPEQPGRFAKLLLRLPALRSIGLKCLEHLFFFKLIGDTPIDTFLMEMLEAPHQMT
Description: (§1) To determine whether a RXR agonist can mediate its effects via RXRα receptor homodimers, RXRβ receptor homodimers, RXRγ receptor homodimers, or any combination thereof, or the corresponding RAR/RXR heterodimers, receptor-mediated transactivation assays were performed. For transactivation assays assessing RXR homodimer signaling, CV-1 cells were transfected with 1) an expression construct including a full length RXRα, RXRβ, or RXRγ; and 2) a rCRBPII/RXRE-tk-Luc reporter construct that included RXR homodimer-specific RXRE/DR1 responsive element linked to a luciferase gene. For transactivation assays assessing RAR/RXR heterodimer signaling, CV-1 cells were transfected with 1) an expression construct comprising a fusion protein including an estrogen receptor (ER) DNA binding domain linked to the ligand binding domain of RARα, RARβ, or RARγ and 2) a ERE-tk-Luc reporter construct that included an estrogen receptor responsive element linked to a luciferase gene. […] Data are mean values±SE from five independent experiments.

RXRγ = RXRγ (Homo sapiens, UniProt P48443)
Description: as §1

[1] = system: C57BL/6 (B6) mice with experimental autoimmune encephalomyelitis (EAE); test: EAE in C57BL/6 (B6) mice, MOG peptide; format: in vivo, mouse; details: IRX4204 50 μg every other day from day 7 to day 20
Description: Mice were also given 200 ng of pertussis toxin in PBS administered by inter-peritoneal (i.p.) injection on the same day as MOG emulsion injection (day 0) and 2 days later (day 2). […] Mice were scored using the following scale: 0—Mice have no disease, 1—Mice have distal limp tail or rear leg weakness (paresis), 1.5—Mice have distal limp tail and rear leg weakness, 2—Mice have complete limp tail and rear leg weakness, 2.5—Mice have complete limp tail and weakness in both rear legs, 3—Mice have complete limp tail and paralysis in both rear legs, 3.5—Mice have complete limp tail, paralysis in both rear legs, and forelimb weakness. Mice receiving a score of 3.5 were immediately euthanized.

B6 mice with EAE = test: EAE dose titration in B6 mice with spleen and CNS analysis; format: in vivo, mouse
Description: A dose titration experiment was also conducted in EAE mice. EAE was induced in 28 B6 mice with MOG/CFA and PT as above. Mice were scored on day 7 as indicated above and divided into groups by score so means are as equal as possible.
At the completion of the experiment, the vehicle control and 200 μg/day groups were euthanized and spleen and CNS samples obtained.

[2] = system: C57BL/6 (B6) mice with EAE; test: CNS infiltrating cells in EAE B6 mice; format: in vivo, mouse; details: day 20 after immunization
Description: To determine whether a RXR agonist can reduce central nervous system (CNS) infiltrating cells, C57BL/6 (B6) mice were treated as described in Example 6. On day 20 after immunization, mice were sacrificed and perfused with phosphate buffered saline (PBS). Brain and spinal cord tissue was isolated, digested with DNase and LIBERASE DL® (Roche Diagnostics, Indianapolis, Ind.) for 30 minutes, and homogenized through 70 micron nylon mesh filters. Resulting cells were placed over a Percoll gradient to remove myelin. The remaining cells (microglia and CNS infiltrating cells) were counted, stained for molecules of interest, and run on a flow cytometer. Based on the frequencies obtained by FACS of these cell populations, total cell numbers of CNS infiltrating leukocytes expressing CD45, including CD4^+ T cells and CD11c^+ CD11b^+ myeloid dendritic cells (DC), were calculated.

SJL mice with EAE = test: EAE in SJL mice, PLP peptide; format: in vivo, mouse
Description: To determine whether a RXR agonist can attenuate multiple sclerosis, SJL mice were immunized to induce EAE by s.c. injection at the base of their spine with 200 μL of adjuvant containing 200 μg proteolipid proteins (139-151) (PLP peptide; Peptides International, Louisville, Ky.) and 400 μg of non-viable M. tuberculosis H37 desiccate emulsified in a mixture of incomplete Freund's adjuvant and PBS. Mice were also given 150 ng of pertussis toxin in PBS i.p. on the same day as PLP emulsion injection and 2 days later. […] Mice were scored using the scale described in Example 3.

Nurr1/RXR heterodimer = molecular target: T2, Nurr1/RXR heterodimer (Homo sapiens, UniProt P19793); test: receptor transactivation assay Nurr1/RXR; format: cell-based; details: COS7 cells
T2 construct: full length Nurr-1 with or without full-length RXRα plasmid; expressed in transfected cells; host or cells: COS7
From the text: For PPARγ: CV-1 cells were transfected with 3×(rAOX/DR1)-tk-Luc reporter gene and an expression vector for PPARγ. For FXR:CV-1 cells were transfected with 3×(IBABP/IRI)-tk-Luc reporter gene and vectors for FXR and RXRα. For LXR:CV-1 cells were transfected with 3×(PLTP/LXRE)-tk-Luc reporter gene with vectors for LXRα or LXRβ. For Nurr1: COS7 cells were transfected with 3×NBRE-tk-luc reporter gene and full length Nurr-1 with or without full-length RXRα plasmid. […] Luciferase data were normalized to co-transfected β-gal activity. Luciferase activity was expressed as percent of maximal activity obtained using specific agonists. Rosiglitazone (PPARγ), GW4064 (FXR), T0901317 (LXR).

[3] = system: oligodendrocyte precursor cells (OPCs); test: oligodendrocyte precursor cell differentiation (PLP-EGFP); format: cell-based, mouse
From the text: OPCs were generated from a neurosphere culture of E14.5 PLP-EGFP (on C57BL/6J background) mouse brains. […] The EGFP expressing cells were quantified with Cellomics Neuronal Profiling Algorithm.
The EGFP expressing cells in controls and all compounds were quantified with Cellomics Neuronal Profiling Algorithm.

[4] = system: one year old rats, caudal cerebellar peduncle lesions; test: focal ethidium bromide induced rat model of demyelination; format: in vivo; details: IRX4204 10 mg/kg/day oral, thyroxine 20 ng/g s.c., 14 days
Description: The experiment uses rats of relatively advanced age (1 year) since such rats undergo remyelination in a less efficient manner, thereby providing data that are more relevant to the clinical treatment of human patients with multiple sclerosis or other demyelination disorders.
Focal demyelination is induced in one year old rats (approximately 300 g in weight) by injecting stereotactically 5 μl of ethidium bromide solution (0.01% vol/vol in saline) in a bilateral manner into the caudal cerebellar peduncles (CCP). […] The rats are killed on day 24 post-ethidium bromide treatment for analysis of remyelination by quantitative polymerase chain reaction (qPCR) and microscopy.

[5] = system: C57BL/6J mice with cuprizone+rapamycin demyelination; test: 12-week cuprizone/rapamycin demyelination model, 6 weeks of treatment; format: in vivo, mouse; details: 6 weeks of treatment after 12 weeks CR
From the text: All animals were sacrificed after 12 weeks of CR or after further 6 weeks of treatment to evaluate myelin in white matter (corpus callosum) and gray matter (hippocampus and cortex). In addition, the size of myelinated axons was quantified and the large myelinated axons were further assessed by 3D-electron microscopy (3D-EM). A total of 40 animals were included in the study, where all 40 animals received CR demyelination for 12 weeks. After demyelination, a subset (n=10) of animals are sacrificed to serve as controls to assess baseline demyelination. […] Floating brain sections are immunostained with myelin prolipid protein (PLP) to visualize and quantify myelin in gray matter, hippocampus (FIG. 16A) and cortex (FIG. 16B).

[6] = system: C57BL/6J mice with cuprizone+rapamycin demyelination; format: in vivo
[7] = system: early Parkinson's Disease subjects; test: open-label clinical study in early Parkinson's Disease subjects; format: in vivo, human; details: for Change in TSH / Total Motor Change / Total UPDRS Change: 15 days
Description: An open-label, single site clinical study of early Parkinson's Disease subjects treated with IRX4204 was conducted to determine whether the preclinical promise of IRX4204 as a disease modifying agent for PD will translate to the clinical setting upon treatment of early PD patients with IRX4204 as determined by Unified Parkinson's Disease Rating Scale (UPDRS) measurements and safety assessments. The changes in UPDRS scores were correlated with circulating thyroxine levels.
Five subjects were recruited for each of the three dose levels. All fifteen subjects completed 15 days of dosing.
All subjects ([…]) completed 15 days of dosing and returned to the clinic at the end of 2 weeks (day 15-17) for UPDRS score determination and safety assessments including determination of plasma thyroxine (T4) levels. Percent changes in Total Motor scores, Total UPDRS scores and plasma T4 values were determined according to the following: […]

[8] = system: rat 6-OHDA induced Parkinson Disease (PD) model; test: rat 6-OHDA induced Parkinson Disease model, paw placement (cylinder test); format: in vivo; details: day 24; IRX4204 10 mg/kg PO, T3 1.5 μg/kg and T4 9 μg/kg SC
Description: The paw placement (cylinder test) was used for assessment of the damage. This test assessed a rat's independent forelimb use to support the body against the walls of a cylindrical enclosure. The test took advantage of the animals' innate drive to explore a novel environment by standing on the hind limbs and leaning towards the enclosing walls.
To perform this test, rats were placed individually in a glass cylinder (21 cm diameter, 34 cm height) and wall exploration was recorded for 3 minutes. No habituation to the cylinder prior to recording was allowed.
The statistical analysis was performed as ratio between the intact and impaired legs (R/L ratio). The ratio was expressed as the values of intact right+both forelimbs divided by the values of impaired left +both forelimbs. A lower value of the ratio means greater healing of the 6-OHDA induced brain damage.
Once a week during three weeks (study days 10, 17 and 24), the animals were re-tested for their performance in the paw placement test.

[9] = system: mouse oligodendrocyte progenitor cells (OPCs); test: mouse OPC differentiation with IRX4204 and T3; format: cell-based; details: 5-day treatment; IRX4204 10, 1, 0.1 nM
Description: OPCs were derived from plp-EGFP expressing mice.
Therapeutic agents were tested in 96-well plates (6 wells per concentration). […] All media contained 0.1% DMSO. At the end of the 5-day treatment, cells were imaged on Cellomics in two channels and algorithms were used to count nuclei and EGFP+oligodendrocytes.

[10] = 200 μg/day, restimulation with PMA/Ionomycin
[11] = 50 μg i.p. every other day from day 7, n=6

T2 sequence (P43354 whole entry partner, one chain of several): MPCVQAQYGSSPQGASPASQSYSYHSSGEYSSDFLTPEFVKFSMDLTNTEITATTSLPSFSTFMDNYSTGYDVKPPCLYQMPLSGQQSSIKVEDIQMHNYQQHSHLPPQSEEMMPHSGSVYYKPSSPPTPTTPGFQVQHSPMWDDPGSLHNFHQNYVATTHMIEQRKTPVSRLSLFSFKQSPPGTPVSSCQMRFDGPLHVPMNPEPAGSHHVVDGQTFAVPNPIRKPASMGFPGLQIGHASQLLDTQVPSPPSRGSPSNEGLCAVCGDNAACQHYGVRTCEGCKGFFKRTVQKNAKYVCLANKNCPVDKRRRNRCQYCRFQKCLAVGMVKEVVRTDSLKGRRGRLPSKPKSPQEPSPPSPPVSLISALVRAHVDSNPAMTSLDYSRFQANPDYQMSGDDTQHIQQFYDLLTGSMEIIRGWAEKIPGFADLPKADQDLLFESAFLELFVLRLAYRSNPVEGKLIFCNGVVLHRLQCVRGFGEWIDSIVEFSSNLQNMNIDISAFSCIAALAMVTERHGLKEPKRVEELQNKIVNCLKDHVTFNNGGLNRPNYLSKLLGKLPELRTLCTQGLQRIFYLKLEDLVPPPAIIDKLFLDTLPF
RXRγ, sequence (P48443 whole entry): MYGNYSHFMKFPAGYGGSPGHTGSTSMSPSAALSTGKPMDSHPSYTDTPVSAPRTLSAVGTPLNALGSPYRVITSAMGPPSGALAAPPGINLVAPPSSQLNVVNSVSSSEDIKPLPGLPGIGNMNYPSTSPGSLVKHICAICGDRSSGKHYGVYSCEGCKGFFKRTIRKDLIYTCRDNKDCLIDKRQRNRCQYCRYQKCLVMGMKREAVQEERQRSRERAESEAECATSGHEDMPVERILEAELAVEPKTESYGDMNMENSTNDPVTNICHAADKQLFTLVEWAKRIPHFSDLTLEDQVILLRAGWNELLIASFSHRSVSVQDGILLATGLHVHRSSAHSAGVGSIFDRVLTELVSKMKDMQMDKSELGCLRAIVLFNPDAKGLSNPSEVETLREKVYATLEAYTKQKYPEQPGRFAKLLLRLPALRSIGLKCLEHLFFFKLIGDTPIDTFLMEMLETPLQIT

CC(/C=C/[C@@H]1C[C@]1(C)c1ccc2c(c1)C(C)(C)CCC2(C)C)=C\C(=O)O [IRX4204, 3,7-dimethyl-6(S),7(S)-methano,7-[1,1,4,4-tetramethyl-1,2,3,4-tetrahydronaphth-7-yl]2(E),4(E) heptadienoic acid]
Efficacy (% of 1 μM IRX4204) RXRα (RXRα; CV-1 cells): 100 % of 1 μM IRX4204
more potent in activating RXR receptors rather than RAR receptors (RXRα; RXR versus RAR receptors): > 1,000 fold
Efficacy (% of 1 μM IRX4204) RXRγ (RXRγ): 100 % of 1 μM IRX4204
symptoms of EAE (scores of disease severity over time) [1]: significantly reduces the symptoms of EAE
disease overall (EAE score) (B6 mice with EAE; 50 μg, 100 μg or 200 μg every day from day 8): significantly less disease overall
CCR6 expression on CD4 T cells, spleen (B6 mice with EAE; 200 μg/day): lowered
CD4+ CD25hi cells (number), spleen (B6 mice with EAE; 200 μg/day): reduced
co-expression of IFNg and IL-17A by CD4 T cells in CNS (B6 mice with EAE; 200 μg/day): not significantly different between groups
frequency of CD4+ CD25hi cells, spleen (B6 mice with EAE; 200 μg/day): not altered
total number of effector and memory CD4 T cells (CD44), spleen (B6 mice with EAE; 200 μg/day): decreased
total number of infiltrating CD4 T cells in the CNS (B6 mice with EAE; 200 μg/day): reduced
total number of recently activated CD4 T cells (CD69 and CD44), spleen (B6 mice with EAE; 200 μg/day): decreased
IFNγ, CNS infiltrating lymphocytes (B6 mice with EAE; [10]): significantly reduced
TNF, CNS infiltrating lymphocytes (B6 mice with EAE; [10]): significantly reduced
infiltration of CD4+ cells in to the CNS [2]: significant reduction
infiltration of CD11c+ CD11b+ cells (myeloid DC) in to the CNS [2]: significant reduction
Mean Maximum Score (SJL mice with EAE; 50 μg i.p. every other day from day 7): 1.5 ± 1.4
Death from Disease (SJL mice with EAE; [11]): 0/6
Disease Incidence (SJL mice with EAE; [11]): 4/6
symptoms of EAE (scores of disease severity) (SJL mice with EAE; 50 μg i.p. every other day, to day 14): significantly reduces the symptoms of EAE
activation of Nurr1/RXR permissive heterodimer (Nurr1/RXR heterodimer): selectively activates
OPC differentiation into oligodendrocytes (EGFP positive cells compared to DMSO) ([3]; all concentrations except the lowest (1^−6 μM)): significant increase; also recorded: dose dependent increase
total cell number and pyknotic cells ([3]; compared to controls): did not show any differences
Mbp expression (real-time qPCR of lesion samples) [4]: increase
Nkx2.2+ oligodendrocyte precursor cells (OPCs) in lesions [4]: increased
Pdgfra expression (real-time qPCR of lesion samples) [4]: increase
density of CC1+ differentiated oligodendrocytes in lesions [4]: increased
density of Olig2+ oligodendrocyte lineage cells in lesions [4]: increased
remyelinated axons (ultrastructural analyses of CCP lesions) [4]: more remyelinated axons than vehicle treatment
size of myelinated axons in the corpus callosum [5]: significantly increases; also recorded: shift in distribution to larger axon diameter
terminal body weights ([6]; ANOVA, IRX4204 or vehicle groups): no significant difference
number of SMI32 positive axonal ovoids in corpus callosum ([6]; IRX4204 10 mg/kg PO, T4 20 ng/g SQ, daily 6 weeks, versus Vehicle, 10 mg/kg): trend towards decreased number of axonal ovoids but was not statistically different from the Vehicle; also recorded: trend towards decrease in axonal ovoids, but it was statistically not different from vehicle
microglial/macrophage activation (Iba1 staining) in corpus callosum ([6]; daily 6 weeks, versus vehicle): no difference
decrease in T4 levels compared to vehicle control animals ([6]; terminal blood draw): ~50%
Change in TSH ([7]; 5 mg/day): −28.9%
Total Motor Change ([7]; 5 mg/day): −31.4%
Total UPDRS Change ([7]; 5 mg/day): −18.7%
Change in TSH ([7]; 10 mg/day): −36.6%
Total UPDRS Change ([7]; 10 mg/day): −13.6%
reduction in Total UPDRS scores ([7]; 20 mg/day): 6.6%
reduction of plasma T4 ([7]; 20 mg/day): 98.8%
Change in TSH ([7]; 20 mg/day): −98.8%
Total Motor Change ([7]; 20 mg/day): −14.5%
mean body weight [8]: 157.17±2.93%
oligodendrocyte production (EGFP+ oligodendrocytes) [9]: clear dose-responses

N[C@@H](Cc1cc(I)c(Oc2ccc(O)c(I)c2)c(I)c1)C(=O)O [T3, triiodothyronine, reference compound]
oligodendrocyte production (EGFP+ oligodendrocytes) [9]: clear dose-responses
